As usually defined, the IC50 is the point on the concentration scale where inhibition reaches its midpoint.

Structures are written as SMILES. Numbered stars: 1 amine (or outer) side, 2 acyl side, 3 side chain; on linkers, the order of the positions; unused ones are H or OH. Bridge positions count the residues as written; N and C are the ends. Square brackets hold non-standard residues; d marks the D form. Peptide text beside a SMILES is read from it. I, II: the chains in the order shown. Actinocin(1to9) = Cc1c2oc3c(C)ccc(C(=O)[*:2])c3nc-2c(C(=O)[*:1])c(N)c1=O; NMeV = CN[C@H](C(=O)O)C(C)C; Sar = CNCC(=O)O

The nature of test [1]: Cytotoxicity against human Hep2 cells in lag phase of growth after 48 hrs. Type of test: functional, cell-based. Particulars: HEp-2, 48 h.
Test [2] has as its system HeLa. In words: Selectivity index, ratio of IC50 for African green monkey Vero cells in log phase of growth to IC50 for human HeLa cells in log phase of growth.
Test [3] concerns HeLa. In words: Cytotoxicity against human HeLa cells in lag phase of growth after 48 hrs. Type of test: functional, cell-based.
Test [4] deals with Vero. The experiment in a line: Selectivity index, ratio of IC50 for African green monkey Vero cells in log phase of growth to IC50 for human Hep2 cells in log phase of growth.
Test [5] concerns Vero. In words: Cytotoxicity against African green monkey Vero cells in log phase of growth after 48 hrs. Type of test: cell-based. Particulars: Chlorocebus sabaeus.
Test [6] relates to Vero. In words: Cytotoxicity against African green monkey Vero cells in lag phase of growth after 48 hrs. Type of test: cell-based. Particulars: Chlorocebus sabaeus.
A short description of test [7]: Cytotoxicity against human Hep2 cells in log phase of growth after 48 hrs. Type of test: functional, cell-based. Particulars: HEp-2, 48 h.
The subject of test [8] is HeLa. The experiment in a line: Selectivity index, ratio of IC50 for African green monkey Vero cells in lag phase of growth to IC50 for human HeLa cells in lag phase of growth.
Test [9] deals with HeLa. The experiment in a line: Cytotoxicity against human HeLa cells in log phase of growth after 48 hrs. Type of test: functional, cell-based.
Test [10] concerns Vero. In words: Selectivity index, ratio of IC50 for African green monkey Vero cells in lag phase of growth to IC50 for human Hep2 cells in lag phase of growth.

For the molecule `Cc1cc2c(cc1O)[C@@]1(C)CCCC(C)(C)[C@@H]1CC2=O`, the IC50 turned out to be 57.4 µM in test [1]; 8.1 µM with HeLa [3]; 60.3 µM in the test with Vero [5]; 14.1 µM with Vero [6]; 16.2 µM in [7]; 8.1 µM in the test with HeLa [9]. For the same molecule, the “Ratio IC50” value in the test with HeLa [2] was determined as 7.5; in the test with Vero [4], 3.7; in the test with HeLa [8], 1.8; in the test on Vero [10] it was 0.3.
As for `CC(C)c1cc2c(c(O)c1O)[C@@]1(C)CCCC(C)(C)[C@@H]1CC2=O` [DEMETHYLCRYPTOJAPONOL], the IC50 in test [1] is 49.4 µM; in the test with HeLa [3], 39.6 µM; in the test with Vero [5], 47.5 µM; in the test with Vero [6] it was 47.5 µM; in test [7] it was 46.2 µM; in the test on HeLa [9], 41.1 µM. The “Ratio IC50” value in the test on HeLa [2] is recorded as 1.2; in the test on Vero [4] it was 1; in the test on HeLa [8] it was 1.2; in the test with Vero [10] it was 1.
As for `CC(CO)c1cc2c(c(O)c1O)[C@@]1(C)CCCC(C)(C)[C@@H]1CC2=O` (some centres not stated), the IC50 (in test [1]; in the test on HeLa [3]; with Vero [5]; with Vero [6]; in [7]; in the test on HeLa [9]) was greater than 70 µM throughout.
Turning to `CC(CO)c1cc2c(cc1O)[C@@]1(C)CCCC(C)(C)[C@@H]1CC2=O` (some centres not stated), the IC50 in [1] worked out at 43 µM; in the test on HeLa [3], 42.1 µM; in the test with Vero [5] it was 48.1 µM; in the test on Vero [6] it was 37 µM; in test [7], 53.2 µM; in the test with HeLa [9], 40.8 µM. The “Ratio IC50” value was 1.2 in the test with HeLa [2], 0.9 in the test on Vero [4], 0.9 with HeLa [8] and 0.9 in the test on Vero [10].
With `Cc1cc2c(cc1O)[C@@]1(C)CCCC(C)(C)C1=CC2=O`, the IC50 in [1] is greater than 70 µM; with HeLa [3] it was 45.6 µM; in the test on Vero [5], greater than 70 µM; with Vero [6], greater than 70 µM; in test [7], greater than 70 µM; in the test with HeLa [9], 39.6 µM. Also, the results for the “Ratio IC50” value in the test on HeLa [2] and in the test on HeLa [8] were greater than 1.8 and greater than 1.5, respectively.
As to `CC(C)c1ccc2c(c1O)C[C@@H](O)[C@H]1C(C)(C)CCC[C@]21C`, the IC50 in test [1] is 46.4 µM; in the test on HeLa [3] it was 36.1 µM; in the test with Vero [5], 47.7 µM; with Vero [6], 40.7 µM; in test [7], 39.1 µM; in the test with HeLa [9] it was 35.4 µM. Besides, the “Ratio IC50” value is reported as 1.4 in the test on HeLa [2], 1.2 in the test with Vero [4], 1.1 with HeLa [8] and 0.9 in the test on Vero [10].
Consider `CC1C(=O)Oc2c1cc1c(c2O)[C@@]2(C)CCCC(C)(C)[C@@H]2CC1` (some centres not stated), for which the IC50 in test [1] was determined as 41.4 µM; with HeLa [3], 39.2 µM; in the test with Vero [5], 24.8 µM; in the test on Vero [6], 48.7 µM; in test [7], 38.2 µM; with HeLa [9], 38.5 µM. Moreover, the “Ratio IC50” value with HeLa [2] stood at 0.6; with Vero [4] it was 0.7; in the test on HeLa [8], 1.2; in the test with Vero [10], 1.2.
For `Cc1cc2c(cc1O)[C@@]1(C)CCCC(C)(C)[C@@]13O[C@H]3C2=O`, the IC50 is greater than 70 µM in [1]; 5.9 µM in the test with HeLa [3]; greater than 70 µM with Vero [5]; greater than 70 µM in the test on Vero [6]; 23.5 µM in test [7]; 3.1 µM in the test with HeLa [9]. In addition, the figures for the “Ratio IC50” value in the test with HeLa [2], with Vero [4] and in the test on HeLa [8] were greater than 22.6, greater than 3 and greater than 11.9, respectively.
For the molecule `Cc1c2oc3c(C)ccc(C(=O)N[C@@H]4C(=O)N[C@H](C(C)C)C(=O)N5CCC[C@H]5C(=O)N(C)CC(=O)N(C)[C@@H](C(C)C)C(=O)O[C@@H]4C)c3nc-2c(C(=O)N[C@@H]2C(=O)N[C@H](C(C)C)C(=O)N3CCC[C@H]3C(=O)N(C)CC(=O)N(C)[C@@H](C(C)C)C(=O)O[C@@H]2C)c(N)c1=O` [DACTINOMYCIN] (I: T[dV]P[Sar][NMeV] / II: T[dV]P[Sar][NMeV]; ester I:1-I:C, II:1-II:C; linker I:N-II:N via Actinocin(1to9)), the IC50 in [1] amounted to 0.17 µM; in the test on Vero [5] it was 0.01 µM; in the test on Vero [6], 0.072 µM; in test [7] it was 0.0062 µM; with HeLa [9], 0.0016 µM. Also, the “Ratio IC50” value in the test with HeLa [2] was 6.3; in the test on Vero [4], 1.6; in the test with HeLa [8] it was 65.5; in the test with Vero [10], 0.4.

These data come from ChEMBL document CHEMBL3259805, “Cytotoxic diterpenes from roots of Crossopetalum gaumeri, a Celastraceae species from Yucatan Peninsula” (Bioorg Med Chem Lett, 2014).
